Data: patent US11872222B2, “Uses” (NeRRe Therapeutics Limited, priority 2020, dated 2024)

Assays:
[1] = test system: VILI mouse model of mechanical injury to the lungs; assay: VILI mouse model: physiological variables (peak inspiratory pressure, elastance); type: in vivo, mice
Method: Orvepitant was evaluated in a VILI mouse model of mechanical injury to the lungs.
Male C57/BL6 mice were pre-treated with oral orvepitant (250 mg/kg) or vehicle control (10 ml/kg, 0.1% tween 80:0.5% hydroxypropyl methylcellulose [HPMC]), approximately 30 minutes before initiation of experimental ventilation.
Mice were anesthetized and tracheotomised for ventilation. The left carotid artery was cannulated to monitor blood pressure (BP), infuse heparinised saline (0.4 ml/hr of 10 units/ml of heparin), and measure sequential blood gas analyses. Airway pressure was monitored continuously, while respiratory mechanics including respiratory resistance (Rrs) and elastance (Ers), were measured at predetermined intervals by end-inflation occlusion. Vehicle-treated or orvepitant-treated animals were ventilated with high tidal volume (33-37 ml/kg) for up to 150 minutes or until a mortality surrogate (increase of >25% peak inspiratory pressure) was reached. As a control group, vehicle-treated animals only were ventilated with low tidal volume (8-9 ml/kg) to confirm the impact of injurious ventilation. Following termination, bronchoalveolar lavage fluid (BAL) was collected for analysis and lungs were processed for flow cytometric evaluation of leukocyte numbers and expression of ICAM-1 on alveolar macrophages and epithelial cells.
Data were evaluated for normality by Shapiro-Wilk test of residuals and QQ plots. Normally distributed data were evaluated by t-test for end-point analysis, or 2-way ANOVA for time courses. Non-normally distributed data were evaluated by Mann-Whitney U test. N=6-7 animals for each dataset.

[2] = test system: VILI mouse model of mechanical injury to the lungs; assay: VILI mouse model: flow cytometric analyses of lung cell suspensions (leukocyte numbers, ICAM-1 surface expression); type: in vivo; settings: male C57/BL6 mice, oral 250 mg/kg pre-treatment, high tidal volume ventilation, flow cytometry, FIG. 2
Method: Orvepitant was evaluated in a VILI mouse model of mechanical injury to the lungs. Male C57/BL6 mice were pre-treated with oral orvepitant (250 mg/kg) or vehicle control (10 ml/kg, 0.1% tween 80:0.5% hydroxypropyl methylcellulose [HPMC]), approximately 30 minutes before initiation of experimental ventilation. Mice were anesthetized and tracheotomised for ventilation. The left carotid artery was cannulated to monitor blood pressure (BP), infuse heparinised saline (0.4 ml/hr of 10 units/ml of heparin), and measure sequential blood gas analyses. Airway pressure was monitored continuously, while respiratory mechanics including respiratory resistance (Rrs) and elastance (Ers), were measured at predetermined intervals by end-inflation occlusion. Vehicle-treated or orvepitant-treated animals were ventilated with high tidal volume (33-37 ml/kg) for up to 150 minutes or until a mortality surrogate (increase of >25% peak inspiratory pressure) was reached. As a control group, vehicle-treated animals only were ventilated with low tidal volume (8-9 ml/kg) to confirm the impact of injurious ventilation. Following termination, bronchoalveolar lavage fluid (BAL) was collected for analysis and lungs were processed for flow cytometric evaluation of leukocyte numbers and expression of ICAM-1 on alveolar macrophages and epithelial cells. Data were evaluated for normality by Shapiro-Wilk test of residuals and QQ plots. Normally distributed data were evaluated by t-test for end-point analysis, or 2-way ANOVA for time courses. Non-normally distributed data were evaluated by Mann-Whitney U test. N=6-7 animals for each dataset. Flow cytometric analyses. Lung cell suspensions were evaluated for quantification of neutrophils and Ly6C high inflammatory (Ly6CN) monocytes by flow cytometry. […] Activation of alveolar macrophages and type 1 and type 2 epithelial cells was determined by assaying for surface expression of ICAM-1.

[3] = test system: VILI mouse model of mechanical injury to the lungs; assay: VILI mouse model: bronchoalveolar lavage fluid (BAL) markers; type: in vivo; settings: male C57/BL6 mice, oral 250 mg/kg pre-treatment, high tidal volume ventilation; FIG. 3
Method: Orvepitant was evaluated in a VILI mouse model of mechanical injury to the lungs. Male C57/BL6 mice were pre-treated with oral orvepitant (250 mg/kg) or vehicle control (10 ml/kg, 0.1% tween 80:0.5% hydroxypropyl methylcellulose [HPMC]), approximately 30 minutes before initiation of experimental ventilation. Mice were anesthetized and tracheotomised for ventilation. The left carotid artery was cannulated to monitor blood pressure (BP), infuse heparinised saline (0.4 ml/hr of 10 units/ml of heparin), and measure sequential blood gas analyses. Airway pressure was monitored continuously, while respiratory mechanics including respiratory resistance (Rrs) and elastance (Ers), were measured at predetermined intervals by end-inflation occlusion. Vehicle-treated or orvepitant-treated animals were ventilated with high tidal volume (33-37 ml/kg) for up to 150 minutes or until a mortality surrogate (increase of >25% peak inspiratory pressure) was reached. As a control group, vehicle-treated animals only were ventilated with low tidal volume (8-9 ml/kg) to confirm the impact of injurious ventilation. Following termination, bronchoalveolar lavage fluid (BAL) was collected for analysis and lungs were processed for flow cytometric evaluation of leukocyte numbers and expression of ICAM-1 on alveolar macrophages and epithelial cells. Data were evaluated for normality by Shapiro-Wilk test of residuals and QQ plots. Normally distributed data were evaluated by t-test for end-point analysis, or 2-way ANOVA for time courses. Non-normally distributed data were evaluated by Mann-Whitney U test. N=6-7 animals for each dataset. Bronchoalveolar lavage fluid (BAL) markers. BAL total protein concentration was measured as a marker of alveolar-epithelial barrier permeability.

Question: For `Cc1cc(F)ccc1[C@H]1C[C@@H](N2CCN3C(=O)CC[C@H]3C2)CCN1C(=O)N(C)[C@H](C)c1cc(C(F)(F)F)cc(C(F)(F)F)c1` [orvepitant], which “Peak inspiratory pressure at the start of ventilation” value ([1]; male C57/BL6 mice, oral 250 mg/kg approx. 30 min before ventilation, vs vehicle) is on record?
Answer: identical between vehicle and orvepitant pre-treated animals

Question: And the “Course of peak inspiratory pressure change over time” value ([1]; male C57/BL6 mice, oral 250 mg/kg pre-treatment, high tidal volume (33-37 ml/kg) ventilation up to 150 min, vs vehicle, FIG. 1)?
Answer: significantly different between groups

Question: And the “'End' peak inspiratory pressure (final value recorded)” value ([1]; male C57/BL6 mice, oral 250 mg/kg pre-treatment, high tidal volume ventilation, 150 min or mortality surrogate, vs vehicle, FIG. 1)?
Answer: significantly higher in vehicle-treated animals than those receiving orvepitant

Question: And the “Changes in respiratory system elastance over time” value ([1]; male C57/BL6 mice, oral 250 mg/kg pre-treatment, high tidal volume ventilation, vs vehicle, FIG. 1)?
Answer: differences between groups did not quite achieve statistical significance

Question: What about the “Mechanical lung injury induced by mechanical ventilation (overall conclusion)” value ([1]; mice, oral pretreatment) of the same compound?
Answer: substantial, significant attenuation

Question: And the “Ly6C high inflammatory monocyte numbers within lung tissue” value ([2]; vs vehicle)?
Answer: significant decrease

Question: What about the “Neutrophil numbers within lung tissue” value ([2]; vs vehicle) of the same compound?
Answer: significant decrease

Question: And the “Upregulation of ICAM-1 surface expression on alveolar macrophages” value [2]?
Answer: significantly attenuated

Question: And the “Upregulation of ICAM-1 surface expression on type 1 epithelial cells” value [2]?
Answer: significantly attenuated

Question: What about the “Upregulation of ICAM-1 surface expression on type 2 epithelial cells” value [2] of the same compound?
Answer: significantly attenuated

Question: What about the “Increase in BAL IL-6” value [3] of the same compound?
Answer: significantly attenuated

Question: And the “Increase in BAL MCP-1 [CCL-2]” value [3]?
Answer: significantly attenuated

Question: And the “Increase in BAL TGF-β” value [3]?
Answer: significantly attenuated

Question: What about the “Increase in BAL total protein concentration (marker of alveolar-epithelial barrier permeability)” value [3] of the same compound?
Answer: significantly attenuated
